Target: Serine/threonine-protein kinase pim-1 (Homo sapiens) (UniProt P11309)
Assay: PIM1 kinase inhibitors, dose response, biochemical, Z'-LYTE FRET, direct format, recombinant human (AID 1671353)
Settings: Z'-LYTE FRET peptide phosphorylation

Brc1c(Br)c(Br)c2n[nH]nc2c1Br
IC50: 1970 nM

From PubChem BioAssay AID1671353
